US20110173718A1, “HERBICIDE TOLERANT PLANTS” (SYNGENTA CROP PROTECTION, INC., priority 2008, published 2011)

How the values were obtained:
[1] = system: HST in spinach chloroplast extract; assay: HST assay (TLC, MFBQ formed), spinach chloroplast extract; assay type: biochemical; details: 25 ppm; TLC, estimated amount of MFBQ formed, relative to controls
Procedure: HST enzyme preparations for assay are also prepared directly from fresh plant material. For example HST enzyme preparations are from spinach. In the first step intact spinach chloroplasts are prepared from two lots of 500 g of fresh baby spinach leaves (e.g from the salad section of the local supermarket). Prepacked spinach is usually already washed, but if buying loose leaves these must be rinsed in water before proceeding. Stalks, large leaves and mid-ribs are removed. Each 500 g lot of leaves is added to 1.5 l of ‘Grinding medium’ in a 2 L plastic beaker. Grinding medium is cold (4° C.) 50 mM Tricine/NaOH buffer at pH 7.1 containing 330 mM glucose, 2 mM sodium isoascorbate, 5 mM MgCl2 and 0.1% bovine serum albumen The beaker, kept at 4° C., is placed under a Polytron 6000 blender, fitted with a 1.5″cutting probe and the mixture blended in short bursts of 5-8 sec up to 8-10K rpm until all the leaves are macerated. The homogenate is filtered into a 5 L beaker (embedded in an ice bucket) through four layers of muslin, and two layers of 50μ mesh nylon cloth. The filtrate is transferred to 250 ml buckets of a Beckman GS-6 centrifuge and spun at […] (3020 rpm) for 2 min at 4° C. The supernatant is drained away and discarded to leave a sediment of chloroplasts. Chloroplasts are resuspended in a few ml of cold resuspension medium by gentle swirling and gentle use of a quill brush soaked in resuspension medium. Resuspension medium is 50 mM Hepes/KOH pH 7.8 containing 330 mM sorbitol, 2 mM EDTA, 5 mM KH2PO4, 2 mM MgCl2 and 0.1% bovine serum albumen at 4° C. The chloroplasts are resuspended in 5-10 ml of resuspension buffer, recentrifuged down and resuspended again in order to wash them. The chloroplasts are then once again centrifuged down and then broken by resuspension in about 5 ml of 50 mM Tricine-NaOH pH 7.8 to a protein concentration of about 40 mg/ml. The solution is stored frozen at −80° C. in aliquots. This resuspension is defrosted and used directly in HST activity assays. Alternatively, chloroplasts are prepared resuspended in 50 mM Tris/HCl buffer at pH 7.8 containing 330 mM sorbitol (alternative resuspension buffer) and layered on top of a percol gradient (comprising the same buffer containing 45% percol), spun down, the intact chloroplast fraction taken and washed 2 or 3 times in the alternative resuspension buffer and then spun down again, resuspended in breaking buffer (without sorbitol), flash frozen and stored in aliquots at −80° C.
(§1) Prenyltransferase (HST) activities are measured by determining the prenylation rates of [U—^14C]homogentisate using farnesyl diphosphate (FDP) as prenyl donor. ^14C homogentisate is prepared from ^14C tyrosine using L amino acid oxidase and HPPD. For inhibitor testing, compounds are dissolved in dimethylsulfoxide (DMSO). DMSO added at up to 2% v/v has no effect on assays. Control assays contain DMSO at the same concentration as in inhibitor containing assays.
Assays using spinach chloroplast extracts (100 μl final volume) contain up to 2 mg of chloroplast protein, 50 mM Tricine-NaOH pH 8.5, 50 mM MgCl2, 200 μM farnesyl diphosphate (FDP) and 26 μM ^14C-homogentisate (167 dpm/pmol). Assays are run for about an hour at 28° C. […] Lipophilic reactions products are extracted and analyzed essentially as described in the literature.
Using the above assays percentage inhibition of the amount of MFBQ formed at a range of doses of inhibitors relative to the control amount obtained with no inhibitor present is reported (Table 1). The better inhibitors give greater percentage inhibition at lower doses.

Chlamydomonas HST = target: T1, Chlamydomonas HST (Chlamydomonas reinhardtii, UniProt A1JHN0); assay: HST assay (TLC, MFBQ formed), recombinant Chlamydomonas HST in E. coli membranes; assay type: biochemical; details: 25 ppm, TLC, estimated amount of MFBQ formed, relative to controls; for inhibition at 25 ppm: read-out: Chlamydomonas. HST % I at 25 ppm
T1 construct: GST (N); made in house; host or cells: E. coli (BL21A1 / BL21DE3), membrane fraction
T1 sequence (A1JHN0 51-370): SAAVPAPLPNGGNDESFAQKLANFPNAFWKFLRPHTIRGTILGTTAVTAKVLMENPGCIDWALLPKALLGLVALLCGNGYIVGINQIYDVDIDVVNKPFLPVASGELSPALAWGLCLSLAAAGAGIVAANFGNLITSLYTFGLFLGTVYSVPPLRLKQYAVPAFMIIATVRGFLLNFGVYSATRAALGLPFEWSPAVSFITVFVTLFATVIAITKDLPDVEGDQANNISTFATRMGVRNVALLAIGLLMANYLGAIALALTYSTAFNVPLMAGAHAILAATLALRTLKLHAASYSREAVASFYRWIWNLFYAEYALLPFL
Procedure: Alternatively, Arabidopsis and Chlamydomonas mature HST coding sequences are cloned as GST N-terminal fusion enzymes and expressed in E. coli.
E. coli. BL21A1 cells expressing mature Arabidopsis or Chlamydonionas HST as a GST N-terminal fusion proteins are grown, harvested, broken and membrane fractions expressing HST produced.
For example, 1 ng of recombinant DNA is used to transform BL21DE3 cells to obtain a plateful of individual colonies. One of these colonies is picked and used to inoculate an overnight culture of 100 ml of Luria Broth (LB) supplemented with 50 ug/ml of kanamycin at final concentration, grown at 37° C. with shaking at 220 rpm. Next morning, 10 mls of the overnight culture is used to inoculate 11 of fresh sterile LB supplemented with 50 ug/ml of kanamycin at final concentration, grown at 37° C. with shaking at 220 rpm until the OD reached 0.6 at 600 nm, induced with the addition of 0.1 mM IPTG and left to induce at 15° C. overnight. The cells are harvested by centrifugation at 4600 rpm for 10 min at 4° C. and the pellet stored at −80° C. […] E. coli cell pellet is then resuspended in 25 ml of 50 mM Tris, pH 7.5 supplemented with Roche EDTA-free protease inhibitor tablet (one tablet in 200 mls of buffer). 10 ml of cells are lysed by sonication on ice. The resultant lysed cells are centrifuged at 3000 g for 10 min to pellet the cell nuclei/debris etc. 10 mls of supernatant is aspirated and centrifuged at 150,000 g for 60 min at 4° C. The pellet containing the membranes is resuspended in 2 ml of the above buffer. These samples are stored as 100 ul aliquots at −80° C., after being diluted with addition of glycerol to 50% v/v.
as §1
The recombinant Chlamydomonas HST expressed in E. coli membranes is assayed in standard reaction mixtures with 200 μM FDP and 100 μM ^14C-homogentisate (40 dpm/pmol) in 50 mM Tricine-NaOH pH 8.5, 20 mM MgCl2. Assays are started with the addition of enzyme and run for ˜20 min at 28° C.
Recombinant Arabidopsis and Rice HSTs are expressed in insect cells. Assays are run as for Chlamydomonas HST except that assay temperature is 27° C. Assays are stopped with 300 ul of solvent mix (1:2, Chloroform:Methanol) and 100 ul of 0.5% NaCl, agitated/mixed and spun at 13,000 rpm in a benchtop eppendorf centrifuge for 5 minutes. 80 ul of the lower phase extract is loaded onto a TLC plate (silica Gel 60, 20 cm×20 cm) FLA3000 system and run for 35 minutes in dichloromethane. The radioactivity is quantified using a Fuji Phosphoimager and band intensity integrated as quantitative measure of product amount. The bands corresponding to oxidised and reduced 2-methyl-6-farnesyl-1,4-benzoquinol (MFBQ) are identified and the total of the two (oxidised and reduced) band intensities is calculated in order to estimate the total amount of MFBQ product formation. Specific activities of 8 pmol MFBQ min^−1 mg^−1 protein (23 pmol) and 7 pmol MFBQ min^−1 mg^−1 protein (14 pmol) are, for example, estimated for the GST-fusion truncated Arabidopsis HST gene (SEQ ID # 3) expressed in membranes from insect cells 4 days and 5 days after transfection respectively. Similar results are noted from past literature on E. coli expressed Arabidopsis HST. Activity from the insect cell expressed GST-fusion truncated rice HST (SEQ ID# 4) is similar. Expression of the non-truncated HST coding sequences as GST fusions also gives HST activity. […]

## COc1nc(C)nc(NC(=O)NS(=O)(=O)c2ccccc2Cl)n1 [Chlorsulfuron, reference compound]
[1]
  Spinach chloroplast extract % I at 25 ppm: 0%
Chlamydomonas HST
  inhibition at 25 ppm: 0%

## Oc1c(Cl)c(Cl)nc(Cl)c1Cl [Compound 1.2]
[1]
  Spinach chloroplast extract % I at 25 ppm: 80%
Chlamydomonas HST
  inhibition at 25 ppm: 70%

## Oc1c(F)c(F)nc(F)c1Br [Compound 1.3]
[1]
  Spinach chloroplast extract % I at 25 ppm: 65%
Chlamydomonas HST
  inhibition at 25 ppm: 55%

## Oc1c(Br)c(F)nc(F)c1Br [Compound 1.4]
[1]
  Spinach chloroplast extract % I at 25 ppm: 75%
Chlamydomonas HST
  inhibition at 25 ppm: 65%

## CCc1cc(CC)c(-c2c(O)c3nccnc3[nH]c2=O)c(CC)c1 [Compound 2.10]
[1]
  Spinach chloroplast extract % I at 25 ppm: 0%
Chlamydomonas HST
  Chlamydomonas. HST % I at 25 ppm: 50%

## O=c1[nH]c2nccnc2c(O)c1-c1ccccc1OC(F)(F)F [Compound 2.12]
[1]
  Spinach chloroplast extract % I at 25 ppm: 0%
Chlamydomonas HST
  Chlamydomonas. HST % I at 25 ppm: 0%

## CCN1c2nccnc2C(O)=C(c2c(Cl)cccc2C(F)(F)F)S1(=O)=O [Compound 3.1]
[1]
  Spinach chloroplast extract % I at 25 ppm: 20%
Chlamydomonas HST
  Chlamydomonas. HST % I at 25 ppm: 20%

## CN1c2nccnc2C(O)=C(c2ccc(Cl)cc2Cl)S1(=O)=O [Compound 3.2]
[1]
  Spinach chloroplast extract % I at 25 ppm: 15%
Chlamydomonas HST
  Chlamydomonas. HST % I at 25 ppm: 0%

## O=S1(=O)C(c2c(Cl)cccc2C(F)(F)F)=C(O)c2nccnc2N1CC(F)F [Compound 3.3]
[1]
  Spinach chloroplast extract % I at 25 ppm: 35%
Chlamydomonas HST
  Chlamydomonas. HST % I at 25 ppm: 20%

## O=S1(=O)C(c2c(Cl)ccc(Cl)c2Cl)=C(O)c2nccnc2N1CC(F)F [Compound 3.4]
[1]
  Spinach chloroplast extract % I at 25 ppm: 40%
Chlamydomonas HST
  Chlamydomonas. HST % I at 25 ppm: 50%

## O=c1c(-c2c(Cl)cncc2Cl)c(O)c2nccnc2n1CC(F)F [Compound 5.1]
[1]
  Spinach chloroplast extract % I at 25 ppm: 10%
Chlamydomonas HST
  Chlamydomonas. HST % I at 25 ppm: 20%
